# Measurements: a melting point compilation (Tetko et al.; mined from patent text by program, amines drawn as free bases though some values may be those of a salt)
row,SMILES,melting point [°C]
1,O=C(O)CCC/C=C\[C@@H]1C[C@@H](NS(=O)(=O)c2ccc(Cl)cc2)CN1S(=O)(=O)c1ccc(Cl)cc1,111 to 113
2,Cc1cnn(-c2ccc(C(=O)N3C=C4CC=CN4Cc4ccccc43)cc2)c1,179 to 181
3,Cc1cc(O)c2c(c1)C(C)(C)CCC2(C)C,133 to 134
4,CCOc1ccc(C=[N+]([O-])C2CCCCC2)cc1,124
5,CN(C)Cc1ccc(CSCCNC(=NC(=O)CNN2C(=O)c3ccccc3C2=O)N(C)N=Cc2ccccc2)o1,115
6,O=C(O)Cc1cccc([N+](=O)[O-])c1[N+](=O)[O-],209 to 215
7,CC#CCOc1cccc(S(=O)(=O)N(C)C(C(=O)NO)c2ccc(OCCCNC(=O)OCC)cc2)c1 (stereo not drawn),60 to 62
8,CCCCOc1coc(CO)cc1=O,68 to 73
9,CC1Oc2ccccc2-n2cnc(-c3noc(C4CC4)n3)c21 (stereo not drawn),162
10,C=CC(C)(C)C(=O)C(Oc1ccc(Cl)cc1)n1cnnc1 (stereo not drawn),124 to 126
11,Cc1csc(C(=O)c2[nH]c3ccc(Cl)cc3c2CC(=O)O)n1,218 to 220
12,O=S(=O)(c1ccccc1)n1cc(I)c2c(OCc3ccccc3)ccnc21,177 to 179
13,Cc1nc(COc2cc(N)c(Cl)cc2C(=O)O)cs1,188 to 189
14,ClC1(Cl)C(Cl)(Cl)C1(Cl)c1ccccn1,132 to 134
15,COC(=O)CC(=O)/C=C/c1c(-c2ccc(F)cc2OC)n(C(C)C)c(=O)c2ccccc12,164 to 166
16,COc1ccc2c(c1)OC(C(=O)O)C2 (racemic),108 to 110
17,CC(C)c1ccc(C(=O)C2CCc3ccccc3C2)c(C(C)C)c1OS(N)(=O)=O (stereo not drawn),137 to 139
18,O=C(O)C(Cl)=C(Cl)C(=O)c1ccccc1,228
19,O=C(NCc1ccc2ccn(C3CCN(CCc4ccc(F)cc4)CC3)c2c1)C(F)F,79 to 80
20,CCCCCCCCOC(=O)C(=C1SCCS1)c1cccc(C(F)(F)F)c1,42 to 43
21,CC(C)N(Cc1ccccc1)c1ncnc2c(N3CCOCC3)nc(N3CCC(N(C)C)CC3)nc12,122 to 125
22,CC1CCN(c2c(C#N)c3c(c4c2Cc2ccccc2-4)-c2ccccc2C3)CC1,166 to 168
23,COC(=O)C(=O)c1cn(C)c2cc(-c3ccc(C(F)(F)F)cc3)ccc12,199 to 200
24,CC(OCCCNC(=O)c1coc(-c2ccc(/C(=C\CCCCC(=O)O)c3cccnc3)cc2)n1)C1CCCCC1 (stereo not drawn),80 to 85
25,Cc1ccc(S(=O)(=O)NC(=O)OCCc2ccc(-n3c(-c4ccccc4)nc4c(C)nc(C)cc43)cc2)cc1,194

row,SMILES,melting point [°C]
1,COc1ccc(N2CCN(c3ccc(-n4c(C)n[nH]c4=O)cn3)CC2)cc1,251 to 252
2,CN(C)CCOC(=O)C(=O)c1ccc(OCCOc2ccc3ccccc3c2)s1,76 to 77
3,Nc1ccc(CS(=O)(=O)Nc2ccccc2)cc1,180 to 182
4,Cc1cccc(Cl)c1-n1nc(C(C)C)c(C#N)c1N,116 to 118
5,O=C(CNC(=O)C1CCCCC1)c1ccccc1,114 to 115
6,FC(F)(F)c1ccc2nc(N3CCN(c4ncccc4C(F)(F)F)CC3)n(Cc3ccccc3)c2c1,154 to 157
7,CCCC1(C)C(=O)N(COC(=O)c2c(Cl)cccc2Cl)S(=O)(=O)N1C (stereo not drawn),93 to 95
8,Cc1ccc(S(=O)(=O)N(C)SN(c2cc(C(F)(F)F)ccc2Cl)c2c([N+](=O)[O-])cc([N+](=O)[O-])cc2C(F)(F)F)cc1,142 to 144
9,CC(C)Oc1c(C(N)=O)n(C)c2ccc(OCc3ccccc3)cc12,164 to 166
10,COc1cc2c(cc1O)CCN(Cc1cccc(C#N)c1)C2,113 to 155
11,CCCc1c(OCCCOc2ccc(C(=O)OCCCN(C)C)cc2F)ccc(C(C)=O)c1O,55 to 56
12,CC(=O)c1cc(-c2cccc(F)c2)c(=O)n2c1-c1sccc1CC2,109 to 110
13,O=C(O)CCCCOc1ccc2nc3[nH]c(=O)[nH]c3cc2c1,317 to 318
14,CN(C)CCCOc1cc(F)c(-c2c(Cl)nc(-n3ccnc3)nc2NCC(F)(F)F)c(F)c1,47 to 49
15,"OC(COCc1ccccc1)C(O)COCc1ccccc1 (single isomer, unassigned; (+))",44 to 45
16,Cc1ccccc1C(=O)Nc1ccc(C(=O)N2CCCC(OCCO)c3cc(Cl)ccc32)cc1 (stereo not drawn),185 to 188
17,Cc1cccc(-n2nc(C)cc2-c2cc[nH]c(=O)c2)c1,182 to 183
18,O=C(O)c1cnc(N2CCN(S(=O)(=O)c3ccc4ccccc4c3)CC2)nc1,> 260
19,COC(Cc1ccc(I)cc1)c1ccc(I)cc1 (stereo not drawn),62 to 64
20,C=CCN(c1ncnc2c1ncn2C1OC(CO)C(O)C1O)C1CCCCC1 (stereo not drawn),123 to 125
21,COc1c(C(=O)Nc2ccc(N(C(C)=O)S(C)(=O)=O)cc2)cc(N2CCC(=O)NC2=O)cc1C(C)(C)C,228 to 229
22,Nc1nccnc1C(=O)N1CCCC1,100 to 105
23,Clc1ncccc1OCCOc1ccccc1,77 to 78
24,CCCCCC(=O)c1c(CN(CC)CC)nc2cc(OC)c(OC)cc2c1-c1ccc(OC)c(OC)c1,104 to 106
25,O=C(CNc1c(C(=O)O)[nH]c2cc(Cl)cc(Cl)c12)c1ccc([N+](=O)[O-])cc1,270 to 272

row,SMILES,melting point [°C]
1,COc1cc(N)c(Cl)cc1-c1nn(C2CCN(CC3CCCCC3)CC2)c(=O)o1,186 to 187
2,CCNC(=O)Nc1scc(-c2ccccc2)c1C(=O)OCC,109 to 112
3,CC(C)CCN1C(=O)C(N)C(=O)N(CC23CC4CC(CC(C4)C2)C3)c2ccccc21 (stereo not drawn),218 to 219
4,CN1C(=O)CC[C@]2(C)c3ccc(-c4cc(Cl)cc(Cl)c4)cc3CC[C@@H]12,172
5,CN(C)C(=S)ON1C(=O)C2CCCCC2C1=O (stereo not drawn),124 to 126
6,Cc1ccc2cccc(OCc3c(Cl)ccc(OCCNC(=O)CCc4ccccc4)c3Cl)c2n1,112 to 114
7,Cc1cc(-c2cnn3c(C(F)(F)F)cc(-c4ccc(C)c(C(F)(F)F)c4)nc23)cc(C)n1,258
8,CS(=O)(=O)c1ccc(C(Cc2ccccc2)C(=O)Nc2nc3ccccc3o2)cc1 (stereo not drawn),118 to 119
9,CC(C)(C)C1c2ccccc2-c2cc(Br)ccc2N1S(=O)(=O)c1ccc(O)cc1 (stereo not drawn),245 to 247
10,CN(C)c1nc2sc3c(NCc4ccccn4)ncnc3c2c2c1COC(C)(C)C2,217 to 218
11,O=C(O)c1cc2cc(Cl)ccc2nc1N[C@@H](Cc1ccc([N+](=O)[O-])cc1)C(=O)O,174 to 176
12,Nc1ccc(O)c(C(=O)CCC(=O)O)c1,158 to 160
13,COC(=O)c1cc(OCc2cn(-c3ccc(C(F)(F)F)cn3)nc2C)nn1C,130 to 131
14,COc1ccc(-c2nc(CCl)cs2)cc1,125 to 128
15,COc1ccc2c(c1)OCCC(C(=O)O)=C2,197 to 200
16,CC(=O)c1cc(-c2cccc(Cl)c2)ccc1N,89 to 90
17,Cc1ccc(-c2ccccc2)c(NC(=N)N2CCOCC2)c1,154 to 155
18,Cc1c(CCl)oc2ccc([N+](=O)[O-])cc12,141 to 142
19,N#CC(C#N)=Cc1ccccc1F,117 to 118
20,CC(=O)N1C=C(c2ccccc2)NC(=O)C1C(C)C (racemic),182 to 185
21,COc1ccccc1NCCN1CCC(C(=O)c2ccc(F)cc2)CC1,116 to 120
22,CCC(CCCNC(=O)Nc1cccnc1)NC(=O)Nc1cccnc1 (stereo not drawn),218 to 219
23,COc1ccc(C(=CF)C(N)C(=O)O)cc1O (stereo not drawn),214
24,CC(C)(C)OC(=O)N[C@@H](Cc1cscn1)C(=O)O,115
25,Cc1ccc(S(=O)(=O)N2[C@@H](c3nnn(C)n3)CC[C@H]2c2ccc(F)cc2)cc1 (racemic),150

row,SMILES,melting point [°C]
1,FC(F)(F)c1cc(C(F)(F)F)cc(P(=S)(S)c2cc(C(F)(F)F)cc(C(F)(F)F)c2)c1,72 to 74
2,CN1C(=O)CC(c2ccc(CO)cc2)C1C(O)c1ccc(-c2ccccc2)s1 (stereo not drawn),205
3,COC(=O)CC/C(C)=C/Cc1c(NC=O)c2c(c(C)c1OC)COC2=O,187 to 189
4,NC(=O)CCN1CCN(C2Cc3cc(Cl)ccc3Sc3cc(F)ccc32)CC1 (stereo not drawn),179 to 182
5,CN(C)c1ccc2c(c1)CC(N1CCN(CCN3CCOC3=O)CC1)c1ccccc1S2 (stereo not drawn),168 to 170
6,CC(C)NCC(O)COc1ccc(CCO)cc1 (stereo not drawn),77 to 78
7,CCOC(=O)c1ccc(CCN2CCN(C(=O)Cc3ccc(Cl)cc3)CC2)cc1,88 to 89
8,Cc1ccc(S(=O)(=O)N2CCCC2c2ccccc2F)cc1 (racemic),143
9,c1ccc(CC[C@H]2CNCCN2)nc1,83 to 87
10,O=S(=O)(CC(O)(CBr)c1cccc(Br)c1)c1ccccc1 (stereo not drawn),132
11,CCc1c(C#N)oc(=O)n1S(=O)(=O)c1c(C)noc1C,117 to 122
12,CCC(C)(C)Nc1c(NCc2cccc(Cl)c2C)c(=O)c1=O,236 to 237
13,O=C(Nc1cc(-c2ccc(Cl)cc2)on1)c1c(Cl)cccc1Cl,228 to 229
14,O=S1(=O)NC(C2CCCCC2)=Nc2cccc(-c3ccccn3)c21,200 to 203
15,CCOc1nc(N)nc(-c2ccccc2)c1-c1ccc(=O)n(C(C)C)n1,188
16,CCCCc1oc2ccccc2c1C(=O)N(CC)Cc1ccc2cc(OCc3nnn[nH]3)ccc2c1,78 to 84
17,Cc1cccc(O[C@@H]2CCN(S(C)(=O)=O)CC[C@H]2O)c1C (relative stereo),112 to 115
18,Cc1ccccc1N(CC(=O)OC(C)(C)C)C(=O)CN1C(=O)c2ccccc2C1=O,140
19,O=C(NCc1ccccc1Cl)c1cccnc1Oc1cccc(F)c1,115 to 117
20,Cc1cc(CCCOc2c(C)cc(C(=N)NO)cc2C)on1,129 to 130
21,COCCN1CCN(CCc2ccc(Nc3ncc4c(n3)-c3ccccc3C(c3ccccc3C(F)(F)F)C4)cc2)CC1 (stereo not drawn),139 to 140
22,COCCOc1cc(CCC(=O)O)n(Cc2ccc(Cl)cc2Cl)n1,111 to 113
23,CCc1nc(C#N)c(N2CCN(c3ccccc3)CC2)nc1C,99 to 101
